# Source: patent US9427433B2, “Methods and compositions for enhancing fertility and/or inhibiting pregnancy failure and restoring glucose tolerance” (Queen's University at Kingston, priority 2011, dated 2016)
# How the values were obtained:
# [1] = system: NOD, NZO and DIO mice; test: Ovarian function, serum estrogen/progesterone, follicle counts and uterine weight ratio; type: in vivo, mouse
# Experimental: Using Papanicolaou's staining kit (Sigma Aldrich, Oakville, Ontario, Canada), staining of vaginal smears obtained between 09:00-10:00 AM was performed to identify the phases of the estrous cycle and to establish the individual animal cycling pattern as previously described (Koss L. G (Ed): The Papanicolaou Stain. In Diagnostic Cytology and its Histopathological Bases. 4th Edit. Koss, Leopold; Melamed and Myron R. Eds. J.B. Lippincott Williams & Wilkins (LWW), Philadelphia. 1992; Vol. 2: 1211-1221). Blood and virgin uteri were collected from nulliparous diabetic NOD females, at the proestrus, estrus and the metestrus phase, respectively, after four weeks in diabetes. Blood and uteri were also collected from age-matched, tacrolimus-treated nulliparous NOD mice immediately after completing the treatment schedule.
# Fifty four NOD mice at the prediabetic and early diabetic stages were carefully selected to match the criteria of being 2 standard deviation heavier in body weight than their age-matched normoglycemic control mice and having blood glucose value of >14.9 mM/1 during the glucose tolerance test. The selected mice were 9 weeks old and were treated with 0.1 mg/kg q2d of tacrolimus (Prograf (5 mg/ml), Astellas) subcutaneously administered in 0.2 ml saline for three weeks after which animals were mated to males of the same strain (See FIG. 1). Vehicle (0.2 ml saline, s.q.) treated hyperglycemic NOD female mice were allowed two weeks in diabetes before they were mated to males of the same strain. Facial (mandibular) venous blood samples were collected from treated animals at 24 and 48 hours between injections and at pregnancy days 0.5, 2.5, 4.5, 6.5, 8.5, 10.5, 12.5, 14.5, 16.5 and 18.5 respectively following a standard procedure for facial bleed in mice (Golde et al Lab Anim (NY) 2005 34:39-43).
# Twenty NZO and DIO/B6 female mice were maintained on a high fat diet consisted of 60% kcal fat, 20% kcal protein and 20% kcal carbohydrate, with a total energy mass of 5.24 kcal/gm (D12492, Research Diets Inc.; Cedarlane Laboratories, Burlington, Ontario, Canada) starting at 7 weeks of age and maintained on the diet for a total of 12 weeks of study period during which their weekly body weight changes and non-fasting blood glucose values were recorded. Mice which became obese as defined by having a Body mass index (BMI) value of 30, and tested positive for glucose intolerance were selected for an initial treatment episode with tacrolimus after being fed for four weeks with the high fat diet (See FIG. 2). Tacrolimus (Prograf (5 mg/ml), Astellas) was administered subcutaneously in a dose of 0.1 mg/kg q2d in 0.2 ml saline for three weeks to the obese and glucose intolerant NZO and DIO mice starting at the age of 10 weeks after which animals were mated to males of the same strain and pregnancy was dated from the morning of the positive detection of vaginal (copulation) plug. Facial (mandibular) venous blood samples were collected from treated animals at 24 and 48 hours between injections and at pregnancy days 0.5, 2.5, 4.5, 6.5, 8.5, 10.5, 12.5, 14.5, 16.5 and 18.5, respectively, following a standard procedure for facial bleed in mice (Golde et al. Lab Anim (NY) 2005 34:39-43). A lean cohort of control B6 and BALBc mice was fed with a regular 10 kcal % control chow diet containing the same protein content as the high fat diet with a total energy mass of 3.1 kcal/g (D12450Bi, Cedarlane, Ontario). […]
# [2] = system: pregnant diabetic mice; test: Fetal weight and intrauterine growth restriction (IUGR); type: in vivo, mouse
# Source text: FIGS. 14A and 14B show representative fetal weights (FIG. 14A) and percent of dams with intrauterine growth restricted (IUGR) pups (FIG. 14B) as measured on day 18.5 of pregnancy in the tacrolimus-treated diabetic mice versus vehicle-treated diabetic dams and those normoglycemic control cohorts. Whiskers in FIG. 14A represent the 10th and 90th percentiles of fetal body weight. Pups with weights below the 10th percentile of the normoglycemic control were considered intrauterine growth restricted (IUGR) as indicated by the shaded region. […] Numbers in brackets in FIG. 14A represents number of pups examined. “n” denotes number of dams. p<0.05.
# [3] = system: NOD mice; conditions: NOD mice at younger age, model for Type 1 diabetes; cited from earlier work
# [4] = rats, subcutaneous 0.1 mg/kg every other day (q2d); cited from earlier work
# [5] = short-term administration, FIG. 3B
structure (smiles),measurement,setting,value
C=CC[C@@H]1/C=C(\C)C[C@H](C)C[C@H](OC)[C@H]2O[C@@](O)(C(=O)C(=O)N3CCCC[C@H]3C(=O)O[C@H](/C(C)=C/[C@@H]3CC[C@@H](O)[C@H](OC)C3)[C@H](C)[C@@H](O)CC1=O)[C@H](C)C[C@@H]2OC [tacrolimus],ovulation,[1]; 0.1 mg/kg q2d s.c. for three weeks,enhanced ovulation
same,ovarian secretion of estrogen and progesterone,"[1]; 0.1 mg/kg q2d s.c. for three weeks, peri- and post-implantation",normalized ovarian secretion of estrogen and progesterone
same,uterine growth (uterine weight ratio),"[1]; early proliferative phase (proestrus) of estrous cycle, FIG. 3C",significant improvement in uterine growth
same,numbers of atretic follicles,[1]; [5],reduced numbers of atretic follicles
same,"numbers of secondary follicles, antral follicles and corpora lutea",[1]; [5],"increased numbers of secondary follicles (FIG. 3B: S), antral follicles (FIG. 3B: A) and corpora lutea (FIG. 3B: CL)"
same,treated pregnant diabetic mice in which IUGR development was inhibited,"[2]; 0.1 mg/kg s.c. every other day, weeks 9-11 of age",88%
same,fetal body weight,"[2]; day 18.5 of pregnancy, 0.1 mg/kg s.c. every other day, weeks 9-11 of age, p<0.05",significantly improved fetal body weight
same,pups born to diabetic dams rescued from inflammatory-mediated growth restriction,[2]; short term administration,88%
same,"suppression of overt diabetes, share of treated NOD mice",[3],84%
same,maximal blood concentration,[4],0.6 nanograms/ml
